Key:
Canis lupus familiaris [1] = assay: % Change in renal vascular resistance in dogs when administered at dose 3 ug/kg intravenously
Canis lupus familiaris [2] = assay: % Change in renal vascular resistance in dogs when administered at dose 15 ug/kg intravenously
Rattus norvegicus [3] = assay: Effective Dose for avoidance acquisition in naive rats when administered intraperitoneal; assay type: functional; conditions: ip
Adenylate cyclase [4] = assay: Inhibitory activity against Dopamine sensitive adenylate cyclase in rats
Rattus norvegicus [5] = assay: Effective Dose for catalepsy production in naive rats when administered intraperitoneal; assay type: functional; conditions: ip
Adenylate cyclase [6] = assay: Inhibitory concentration against Dopamine sensitive adenylate cyclase in rats; assay type: functional

Molecule | Change (Canis lupus familiaris [1]) [%] | Change (Canis lupus familiaris [2]) [%] | ED50 (Rattus norvegicus [3]) [mg/kg] | Ki (Adenylate cyclase [4]) [nM] | ED50 (Rattus norvegicus [5]) [mg/kg] | IC50 (Adenylate cyclase [6]) [nM]
NCCc1ccc(O)c(O)c1 [DOPAMINE] | 8 | – | – | – | – | –
H-RPPGFSPFR-OH [BRADYKININ] | -19 | -37 | – | – | – | –
CN1CCc2c(Cl)c(O)c(O)c(Sc3ccccc3)c2CC1 | – | – | 0.08 | 33 | 3 | 360
Br.CN1CCc2cc(O)c(O)c(Sc3ccccc3)c2CC1 | – | – | 0.5 | 22 | 5.6 | 240
Br.Oc1cc2c(c(Sc3ccccc3)c1O)CCNCC2 | – | – | 4.9 | 250 | 64.6 | 2700
CN(C)CCCN1c2ccccc2Sc2ccc(Cl)cc21 [CHLORPROMAZINE] | – | – | 1.5 | 118 | 4.2 | 1300
